Measurements as given in patent US10280447B2, “Substituted imidazo[1,2-A]pyrazines tethered to energy acceptors” (PROMEGA CORPORATION, priority 2016, dated 2019).

System: NanoLuc® enzyme and NanoLuc-Halotag fusion protein enzyme
Test: Spectral profile of the coelenterazine analogue/luciferase reaction (Tecan-M1000, 3 nm increments)
Assay type: biochemical, Oplophorus gracilirostris
Conditions: NanoGlo® buffer
Method: FIGS. 2A-2D show the spectral profiles of varying concentrations of TAK-0043 and enzyme in NanoGlo® buffer. […] TAK-0043 was tested as a potential coelenterazine analogue capable of shifting the emission spectrum in a coelenterazine/luciferase reaction. A dilution series of purified NanoLuc® enzyme (Promega E499a) and NanoLuc-Halotag fusion protein enzyme was prepared in OptiMEM+0.1% FBS starting 2 μM. 50 ul of the 2 μM enzyme dilutions were combined with 50 μl of 2 μM and 20 μM TAK-0043 in NanoGlo® buffer in triplicate. These samples were immediately read on the Tecan-M1000 using 3 nm increments to obtain spectral profiles. Another spectral measurement was completed by combining 50 μl of 6.6 μM NanoLuc® enzyme and NanoLuc-Halotag fusion protein enzyme in OptiMEM+0.1% FBS with 50 μl of 2 μM TAK-0043 in NanoGlo® buffer in triplicate. This sample was also read on the Tecan M-1000 using […] increments.

peak for coelenterazine emission at 460 nm (TAK-0043 with NanoLuc® and NanoLuc-HaloTag fusion enzyme): nearly invisible | emitted photons shifted to NCT dye emission (all concentrations of TAK-0043 (1 or 10 uM) and enzyme (1 or 3.3 uM) used): > 95% | emission maximum (all concentrations of TAK-0043 and enzyme used): 618 nm
Structure (SMILES): O=C(NCCCCCCOc1cccc(Cc2nc3c(Cc4ccccc4)[nH]c(-c4ccccc4)cn-3c2=O)c1)c1ccc(C(=O)O)c(C2=c3cc4c5c(c3Oc3c2cc2c6c3CCCN6CCCC2)CCC[N+]=5CCCC4)c1 [TAK-0043]
